Measurements: patent US6066484A, “Purine nucleosidase” (Suntory Limited, priority 1996, dated 2000)
“Also recorded” adds a separate entry of the source.

Experiments:
Type in all cases: biochemical, Ochrobactrum anthropi
purine nucleosidase [1] = assay: Substrate specificity of purine nucleosidase by thin-layer chromatography; design: key to Relative activity: -: not reacted; +: <10%; ++: <31%; +++: <50%; ++++: >50%; conditions: for Relative activity: thin-layer chromatography
Method: (§1) The reaction solution (200 μl) contained 0.5 mM of adenosine or inosine or 0.25 mM of guanosine as the substrate, 50 mM of acetate buffer at pH 4.5 and a sufficient amount of enzyme. The reaction was initiated by addition of the enzyme, and the reaction was conducted at 50° C. for 5 minutes. The reaction was terminated by addition of 20 μl of 15% perchloric acid, and after centrifugation (35,000 rpm, 10 min) the supernatant was analyzed qualitatively by thin-layer chromatography (TLC) and quantitatively by high-performance liquid chromatography. The analysis methods were as follows.
(1) Thin-layer chromatography
Plate: Kieselgel 60F254 (Merk)
Developing solution: n-butanol/isopropanol/H2 O/NH4 OH=1:7:2:0.2 (v/v/v/v) (for adenosine and guanosine substrates), n-butanol/acetic acid/H2 O=5:1:1 (v/v/v) (for inosine substrate)
The substrate specificity of the purine nucleosidase was determined by thin-layer chromatography (TLC).
(§2) The specific activity was measured under conditions of 50° C., pH 4.5. The Km and Vmax were measured under conditions of 30° C., pH 4.5. The relative activity was expressed according to the following measurement method.

purine nucleosidase [2] = assay: Effect of metal ions on purine nucleosidase; conditions: for Relative activity: 1 mM metal, pH 4.5, 30° C., 40 minutes, not added = 100.0; for Inhibition or activation of purine nucleosidase by metal ions (in words): 1 mM metal ion
Method: as §1
Various metal ions were added to the activity measuring solution in an amount of 1 mM to measure the activity. The reaction was conducted at pH 4.5, 30° C. for 40 minutes.

purine nucleosidase [3] = assay: Effect of inhibitors on purine nucleosidase; conditions: 1 mM inhibitor; for Relative activity: pH 4.5, 30° C., 20 minutes, not added = 100.0
Method: as §1
The activity was measured after adding 1 mM of different inhibitors to the activity measurement solution. The reaction was conducted at pH 4.5, 30° C. for 20 minutes.

[4] = test system: Active fraction 1 (purine nucleosidase activity); assay: Purine nucleosidase activity of active fraction 1 (1st DEAE-Sephacel)
Method: After suspending 20 g of the wet cells in 40 ml of 10 mM Tris-HCl buffer solution (pH 7.4) (hereunder referred to as "buffer"), they were disrupted in a Dynamill at 4° C. for 10 minutes. After filtering the disrupted cell suspension it was centrifuged (10,000 rpm, 60 min) and the supernatant was used as a cell-free extract. The cell-free extract (250 ml) was dialyzed for 12 hours against 5 L of buffer and then applied to a DEAE-Sephacel column (3×30 cm, 200 ml) which had been equilibrized with the buffer. The adsorbed protein was eluted with an NaCl concentration gradient from 0 to 1.0 M and the active fractions were recovered.
The purine nucleosidase activity at this time was split into two peaks (FIG. 1). Fraction nos. 46 to 69 were collected as the first active fraction and fraction nos. 85 to 101 were collected as the second active fraction.
as §1

[5] = test system: Active fraction 2 (purine nucleosidase activity); assay: Purine nucleosidase activity of active fraction 2 (1st DEAE-Sephacel)
purine nucleosidase [6] = assay: Specific activity, Km and Vmax of purine nucleosidase; conditions: pH 4.5
Method: as §1
(2) High-performance liquid chromatography
Eluent: 0.1 M sodium chlorate tetrahydrate, 0.1% (v/v) phosphoric acid
as §2

| Compound | Relative activity (purine nucleosidase [1]) | Relative activity (purine nucleosidase [2]) [%] | also measured |
| --- | --- | --- | --- |
| O=c1ccn([C@@H]2O[C@H](COP(=O)(O)O)[C@@H](O)[C@H]2O)c(=O)[nH]1 [5'-UMP] | - |  |  |
| [Cl-].[K+] [KCl] |  | 100.9 |  |
| [Cl-].[Li+] [LiCl] |  | 103.0 |  |
| Cl.NO [NH2 OH·HCl] |  |  | Relative activity (purine nucleosidase [3]): 106.6% |
| O=c1[nH]cc([C@@H]2O[C@H](CO)[C@@H](O)[C@H]2O)c(=O)[nH]1 [pseudouridine] | - |  |  |
| O=c1[nH]cnc2c1ncn2[C@@H]1O[C@H](COP(=O)(O)OP(=O)(O)O)[C@@H](O)[C@H]1O [5'-IDP] | - |  |  |
| Nc1ncnc2c1ncn2[C@@H]1O[C@H](CO)[C@@H](O)[C@H]1O [adenosine] | ++++ (>50%) |  | Specific activity, Active fraction 1 ([4]; 30° C.): 0.70 µmol/min/mg; Specific activity, Active fraction 1 ([4]; 50° C.): 3.6 µmol/min/mg; Specific activity, Active fraction 2 ([5]; 30° C.): 0.59 µmol/min/mg; Specific activity, Active fraction 2 ([5]; 50° C.): 0.45 µmol/min/mg; decomposition of purine nucleosides (in words) (purine nucleosidase [1]; pH 5.5 and 60° C.): capable of decomposing; Km (purine nucleosidase [6]; 30° C.): 17.1 µM; Vmax (purine nucleosidase [6]; 30° C.): 28.5 µmol/min/mg; Specific activity (purine nucleosidase [6]; 50° C.): 292 µmol/min/mg |
| NC(=O)c1ccc[n+]([C@@H]2O[C@H](COP(=O)([O-])O)[C@@H](O)[C@H]2O)c1 [β-NMN] | - |  |  |
| O=S(=O)([O-])[O-].[Be+2] [BeSO4] |  | 88.9 |  |
| O=[As]([O-])([O-])O.[Na+].[Na+] [sodium arsenate] |  |  | Relative activity (purine nucleosidase [3]): 69.4% |
| [Cl][Ni][Cl] [NiCl2] |  | 91.3 |  |
| O=S(=O)([O-])[O-].[Fe+2] [FeSO4] |  | 92.6 |  |
| [Cl][Al]([Cl])[Cl] [AlCl3] |  | 73.6 |  |
| [Cl-].[Cs+] [CsCl] |  | 106.9 |  |
| Oc1cccc2cccnc12 [8-hydroxyquinoline] |  |  | Relative activity (purine nucleosidase [3]): 8.5% |
| 5'-bromouridine | - |  |  |
| O=C(O)c1cc(SSc2ccc([N+](=O)[O-])c(C(=O)O)c2)ccc1[N+](=O)[O-] [DTNB, 5,5'-dithiobis(2-nitrobenzoic acid)] |  |  | Inhibition of purine nucleosidase (in words) (purine nucleosidase [3]): Inhibition occurred; also recorded: inhibited; Relative activity (purine nucleosidase [3]): 37.4% |
| O=C(O)c1cc[c]([Hg][Cl])cc1 [p-CMB] |  |  | Relative activity (purine nucleosidase [3]): 80.2% |
| [Cl][Pb][Cl] [PbCl2] |  | 111.0 |  |
| O=C(O)CN(CCN(CC(=O)O)CC(=O)O)CC(=O)O [EDTA-Na2] |  |  | Relative activity (purine nucleosidase [3]): 54.4% |
| O=C1CCC(=O)N1Br [N-bromosuccimide] |  |  | Relative activity (purine nucleosidase [3]): 113.7% |

| Compound | Relative activity (purine nucleosidase [1]) | Relative activity (purine nucleosidase [2]) [%] | also measured |
| --- | --- | --- | --- |
| O=S(=O)([O-])[O-].[Cu+2] [CuSO4] |  | 42.7 | Inhibition or activation of purine nucleosidase by metal ions (in words) (purine nucleosidase [2]; listed as Cu^2+): Inhibition occurred; also recorded: Inhibited |
| c1cnc2c(c1)ccc1cccnc12 [o-phenanthroline] |  |  | Relative activity (purine nucleosidase [3]): 78.3% |
| 2'-chloroadenosine | ++++ (>50%) |  |  |
| [Cl][Cd][Cl] [CdCl2] |  | 124.9 |  |
| O=c1[nH]cnc2c1ncn2[C@@H]1O[C@H](CO)[C@@H](O)[C@H]1OP(=O)(O)O [2'-IMP] | - |  |  |
| [Cl][Mn][Cl] [MnCl2] |  | 65.5 | Inhibition or activation of purine nucleosidase by metal ions (in words) (purine nucleosidase [2]; listed as Mn^2+): Inhibition occurred; also recorded: Inhibited |
| Nc1ncnc2c1ncn2[C@@H]1O[C@H](CO)[C@@H](O)[C@H]1OP(=O)(O)O [2'-AMP, 2'-adenosine monophosphate] | ++ (<31%) |  |  |
| [Cl-].[Na+] [NaCl] |  | 93.3 |  |
| [Cl-].[Cl-].[Co+2] [CoCl2] |  | 82.9 |  |
| NC(=O)c1ccc[n+]([C@@H]2O[C@H](COP(=O)([O-])OP(=O)(O)OC[C@H]3O[C@@H](n4cnc5c(N)ncnc54)[C@H](O)[C@@H]3O)[C@@H](O)[C@H]2O)c1 [β-NAD, β-nicotinamide adenine dinucleotide] | + (<10%) |  |  |
| [Cl-].[Cl-].[Mg+2] [MgCl2] |  | 91.6 |  |
| CCN1C(=O)C=CC1=O [N-ethylmaleimide] |  |  | Relative activity (purine nucleosidase [3]): 107.9% |
| [Ca+2].[Cl-].[Cl-] [CaCl2] |  | 101.7 |  |
| [N-]=[N+]=[N-] [sodium azide] |  |  | Inhibition of purine nucleosidase (in words) (purine nucleosidase [3]): Inhibition occurred; also recorded: inhibited; Relative activity (purine nucleosidase [3]): 72.9% |
| NNc1ccccc1 [phenylhydrazine] |  |  | Relative activity (purine nucleosidase [3]): 100.4% |
| NC(=O)c1ccc[n+]([C@@H]2O[C@H](COP(=O)([O-])OP(=O)(O)OC[C@H]3O[C@@H](n4cnc5c(=O)[nH]cnc54)[C@H](O)[C@@H]3O)[C@@H](O)[C@H]2O)c1 [deamino NAD] | - |  |  |
| [Cl][Sn][Cl] [SnCl2] |  | 113.2 |  |
| Nc1ncnc2c1ncn2[C@@H]1O[C@H](COP(=O)(O)O)[C@@H](O)[C@H]1O [5'-AMP, 5'-adenosine monophosphate] | ++ (<31%) |  |  |
| Nc1ncnc2c1ncn2[C@@H]1O[C@H](CO)C[C@H]1O [cordycepin] | ++ (<31%) |  |  |
| O=c1ccn([C@H]2C[C@H](O)[C@@H](CO)O2)c(=O)[nH]1 [2'-deoxyuridine] | - |  |  |
| O=S(=O)([O-])[O-].[Ag+].[Ag+] [Ag2 SO4] |  | 31.6 | Inhibition or activation of purine nucleosidase by metal ions (in words) (purine nucleosidase [2]; listed as Ag^+): Inhibition occurred; also recorded: Inhibited |

| Compound | Relative activity (purine nucleosidase [1]) | Relative activity (purine nucleosidase [2]) [%] | also measured |
| --- | --- | --- | --- |
| [Cl][Fe]([Cl])[Cl] [FeCl3] |  | 100.0 |  |
| O=c1ccn([C@@H]2O[C@H](CO)[C@@H](O)[C@H]2O)c(=O)[nH]1 [uridine] | - |  |  |
| Nc1ncnc2c1ncn2[C@@H]1O[C@H](CO)[C@@H](OP(=O)(O)O)[C@H]1O [3'-AMP, 3'-adenosine monophosphate] | ++ (<31%) |  |  |
| [F-].[Na+] [sodium fluoride] |  |  | Inhibition of purine nucleosidase (in words) (purine nucleosidase [3]): Inhibition occurred; also recorded: inhibited; Relative activity (purine nucleosidase [3]): 62.2% |
| O=C(O)CI [iodoacetic acid] |  |  | Relative activity (purine nucleosidase [3]): 99.4% |
| [Cl-].[Rb+] [RbCl] |  | 106.5 |  |
| [Cl][Hg][Cl] [HgCl2] |  | 39.4 | Inhibition or activation of purine nucleosidase by metal ions (in words) (purine nucleosidase [2]; listed as Hg^2+): Inhibition occurred; also recorded: Inhibited |
| [Ba+2].[Cl-].[Cl-] [BaCl2] |  | 86.1 |  |
| O=[Se](O)O [sodium selenite] |  |  | Inhibition of purine nucleosidase (in words) (purine nucleosidase [3]): Inhibition occurred; also recorded: inhibited |
| Nc1ccn([C@@H]2O[C@H](CO)[C@@H](O)[C@H]2OP(=O)(O)O)c(=O)n1 [2'-CMP] | + (<10%) |  |  |
| Nc1ccn([C@@H]2O[C@H](CO)[C@@H](O)[C@H]2O)c(=O)n1 [cytidine] | - |  |  |
| NC(=O)c1ccc[n+]([C@@H]2O[C@H](COP(=O)([O-])OP(=O)(O)OC[C@H]3O[C@@H](n4cnc5c(N)ncnc54)[C@H](OP(=O)(O)O)[C@@H]3O)[C@@H](O)[C@H]2O)c1 [β-NADP] | - |  |  |
| NNC(N)=O [semicarbazide] |  |  | Relative activity (purine nucleosidase [3]): 103.4% |
| Cc1cn([C@H]2C[C@H](O)[C@@H](CO)O2)c(=O)[nH]c1=O [thymidine] | - |  |  |
| Nc1ccn([C@@H]2O[C@H](COP(=O)(O)O)[C@@H](O)[C@H]2O)c(=O)n1 [5'-CMP] | - |  |  |
| O=c1[nH]c(=O)c2ncn([C@@H]3O[C@H](COP(=O)(O)O)[C@@H](O)[C@H]3O)c2[nH]1 [5'-XMP] | + (<10%) |  |  |
| Nc1ncnc2c1ncn2[C@H]1C[C@H](O)[C@@H](CO)O1 [2'-deoxyadenosine] | ++ (<31%) |  |  |
| O=S(=O)([O-])[O-].[Zn+2] [ZnSO4] |  | 74.9 | Inhibition or activation of purine nucleosidase by metal ions (in words) (purine nucleosidase [2]; listed as Zn^2+): Inhibition occurred; also recorded: Inhibited |
| Nc1nc2c(ncn2[C@@H]2O[C@H](COP(=O)(O)O)[C@@H](O)[C@H]2O)c(=O)[nH]1 [5'-GMP, 5'-guanosine monophosphate] | + (<10%) |  |  |
